Among the data in PubChem BioAssay AID488985 (Sanford-Burnham Center for Chemical Genomics, 2010) are EC50 values, retold here.

The source made the active and inactive calls.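 The calls were made as follows: active = mean EC50 below 10 µM; inactive = the rest.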

As a reminder, the EC50 is the concentration that produces a half-maximal response.

The target of the experiment is Apelin receptor (Homo sapiens) (UniProt P35414). Nature of the experiment: apelin receptor activator analogs – cell-based, luminescence, set 2, SAR follow-up (AID 488985). As to conditions: CHO-K1 AGTRL-1 PathHunter beta-arrestin.
Apelin receptor (Homo sapiens), sequence (P35414 whole entry, looked up): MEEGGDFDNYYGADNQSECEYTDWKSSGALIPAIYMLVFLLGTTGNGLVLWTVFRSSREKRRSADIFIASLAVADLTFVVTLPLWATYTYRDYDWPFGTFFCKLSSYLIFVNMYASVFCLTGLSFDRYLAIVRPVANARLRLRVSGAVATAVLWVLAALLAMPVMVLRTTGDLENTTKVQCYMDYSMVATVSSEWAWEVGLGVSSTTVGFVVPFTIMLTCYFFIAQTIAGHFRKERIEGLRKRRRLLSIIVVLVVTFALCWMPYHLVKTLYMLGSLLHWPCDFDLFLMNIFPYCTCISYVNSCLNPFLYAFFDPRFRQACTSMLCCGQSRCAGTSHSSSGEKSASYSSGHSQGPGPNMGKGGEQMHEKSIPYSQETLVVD
Regarding `CCCCN(C)CCn1c(=S)[nH]c2cc(OCC)c(OCC)cc2c1=O`, the EC50 entry is “inactive”.
For the compound `CCOc1cc2[nH]c(=S)n(CCN3CCCCC3CC)c(=O)c2cc1OCC` (configuration not stated), the EC50 result was “inactive”.
For `Cc1cc(C)n2nc3nc(N4CCCCC4)nc(-c4ccccc4)c3c2n1` the value was > 79 µM (inactive); for `CCN1C(c2ccccc2)=C(c2ccccc2)S/C1=C\C=C1/SC(=S)N(C)C1=O`, 4.42 µM.
For `CC(C)C1=CC(=NOS(=O)(=O)c2ccccc2)C=C(C(C)C)C1=O` the value was 13.1 µM; for `CCN1C(=O)/C(=C/C=C2/Sc3ccccc3N2CC)SC1=S`, > 79 µM (inactive); for `CC1=CC(=NOS(=O)(=O)c2ccccc2)C(C)=CC1=O`, 6.07 µM.
Under `CCOc1ccc(S(=O)(=O)Nc2nc(-c3ccccc3)cs2)cc1` stands > 79 µM (inactive); under `CCN1C(=O)/C(=C/C=C2/SC(c3ccccc3)=C(c3ccccc3)N2CC)SC1=S`, > 79 µM (inactive).
For the compound `CCOc1cc2[nH]c(=S)n(CCCC(=O)NCc3ccccn3)c(=O)c2cc1OCC`, the EC50 entry was “inactive”.
For `CCc1nnc(NC(=O)CSc2nc3cccnc3n2Cc2ccccc2)s1` the value was > 79 µM (inactive); for `CC1=C/C(=N/OS(=O)(=O)c2ccccc2)C(C(C)C)=CC1=O`, 11.9 µM; for `CC1=CC(=O)C=C/C1=N/OS(=O)(=O)c1ccc(C)cc1`, > 79 µM (inactive).
With `CC1=CC(=O)C(C(C)(C)C)=C/C1=N/OS(=O)(=O)c1ccccc1`, the EC50 is 4.2 µM.
For `CCc1nnc(NC(=O)CSc2nc3cccnc3n2C2CCCCC2)s1` the value was “inactive”; for `CCOc1cc2[nH]c(=S)n(CCN3CCC(C)CC3)c(=O)c2cc1OCC`, > 79 µM (inactive).
For the compound `Cc1cc(O)c(C2CCCCC2)cc1N=O`, the EC50 was > 79 µM (inactive).
